For orientation: inhibition means the change of the read-out against control, counted positive when it falls.

Experiment [1] concerns the target Methyl-CpG-binding domain protein 4 (Homo sapiens) (UniProt O95243). The following applies: Compound Concentration 10.0 uM, Hit No.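 Further: MBD4 activity read as fluorescence at 594 nm from cleavage and release of a quenched duplex DNA oligonucleotide, with APE1 coupled to incise the strand and raise turnover.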
Description: Inhibition of MBD4 by quantifying inhibition of MBD4-mediated cleavage and dissociation of quenched duplex DNA oligonucleotides, measured as fluorescence at 594 nm. To generate a functional strand incision and increase turn-over this assay is coupled to APE1.
For experiment [2], the target named is DNA-3-methyladenine glycosylase (Homo sapiens) (UniProt P29372). The following applies: Compound Concentration 10.0 uM, Hit No.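 Further: enzyme assay where MPG cuts a quenched duplex DNA oligonucleotide probe, paired with APE1 for strand incision and turnover, read as fluorescence at 594 nm.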
DNA-3-methyladenine glycosylase (Homo sapiens), sequence (P29372 whole entry): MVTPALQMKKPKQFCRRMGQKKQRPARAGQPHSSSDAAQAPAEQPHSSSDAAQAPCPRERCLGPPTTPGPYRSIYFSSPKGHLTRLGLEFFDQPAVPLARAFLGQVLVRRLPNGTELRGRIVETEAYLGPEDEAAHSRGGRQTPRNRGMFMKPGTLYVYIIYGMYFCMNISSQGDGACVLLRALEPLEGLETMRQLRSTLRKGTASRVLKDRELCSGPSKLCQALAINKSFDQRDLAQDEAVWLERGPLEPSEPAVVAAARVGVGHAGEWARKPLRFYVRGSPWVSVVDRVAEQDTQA
Description: Inhibition of MPG by quantifying inhibition of MPG-mediated cleavage and dissociation of quenched duplex DNA oligonucleotides, measured as fluorescence at 594 nm. To generate a functional strand incision and increase turn-over this assay is coupled to APE1.
Experiment [3] deals with T1, Adenine DNA glycosylase (Homo sapiens) (UniProt Q9UIF7).
T1 sequence (whole entry): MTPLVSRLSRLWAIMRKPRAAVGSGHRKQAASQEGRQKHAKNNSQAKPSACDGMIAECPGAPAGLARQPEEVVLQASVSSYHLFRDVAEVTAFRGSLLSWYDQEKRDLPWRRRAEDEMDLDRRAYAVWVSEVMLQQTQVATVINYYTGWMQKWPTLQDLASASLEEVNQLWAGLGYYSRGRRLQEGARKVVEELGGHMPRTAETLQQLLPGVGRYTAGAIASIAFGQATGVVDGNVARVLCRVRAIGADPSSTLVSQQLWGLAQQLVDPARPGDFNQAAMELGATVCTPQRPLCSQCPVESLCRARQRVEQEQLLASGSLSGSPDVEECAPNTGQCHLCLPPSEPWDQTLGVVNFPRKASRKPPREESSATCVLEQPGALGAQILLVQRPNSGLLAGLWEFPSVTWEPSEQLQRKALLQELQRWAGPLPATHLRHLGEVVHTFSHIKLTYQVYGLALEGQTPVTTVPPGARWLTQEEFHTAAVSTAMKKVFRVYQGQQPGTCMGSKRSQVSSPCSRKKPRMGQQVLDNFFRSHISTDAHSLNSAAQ
As to conditions: Compound Concentration 10.0 uM, Hit No.
Description: Inhibition of MUTYH by quantifying inhibition of MUTYH-mediated cleavage and dissociation of quenched duplex DNA oligonucleotides, measured as fluorescence at 594 nm. To generate a functional strand incision and increase turn-over this assay is coupled to APE1.

Experiment [4] concerns the target Endonuclease 8-like 1 (Homo sapiens) (UniProt Q96FI4). As to conditions: Compound Concentration 10.0 uM, Hit No.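 Further: fluorescence at 594 nm from quenched duplex DNA oligonucleotides released by NEIL1 cleavage and strand separation, reported as reduction of this enzyme activity.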
Description: Inhibition of NEIL1 by quantifying inhibition of NEIL1-mediated cleavage and dissociation of quenched duplex DNA oligonucleotides, measured as fluorescence at 594 nm.
Experiment [5] addresses T2, Endonuclease 8-like 2 (Homo sapiens) (UniProt Q969S2).
T2 sequence (whole entry): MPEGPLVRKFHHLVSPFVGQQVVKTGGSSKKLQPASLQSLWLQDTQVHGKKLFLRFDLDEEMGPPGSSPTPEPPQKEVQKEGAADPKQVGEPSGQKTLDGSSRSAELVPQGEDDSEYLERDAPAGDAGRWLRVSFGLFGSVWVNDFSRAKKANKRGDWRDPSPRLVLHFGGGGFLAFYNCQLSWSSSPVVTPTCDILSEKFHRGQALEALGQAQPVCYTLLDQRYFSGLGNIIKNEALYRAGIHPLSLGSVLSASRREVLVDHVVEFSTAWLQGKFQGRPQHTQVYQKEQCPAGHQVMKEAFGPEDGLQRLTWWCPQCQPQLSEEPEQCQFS
The following applies: Compound Concentration 10.0 uM, Hit No.
Description: Inhibition of NEIL2 by quantifying inhibition of NEIL2-mediated cleavage and dissociation of quenched duplex DNA oligonucleotides, measured as fluorescence at 594 nm.

Experiment [6] deals with N-glycosylase/DNA lyase (Homo sapiens) (UniProt O15527). The following applies: Compound Concentration 10.0 uM.
N-glycosylase/DNA lyase (Homo sapiens), sequence (O15527 whole entry): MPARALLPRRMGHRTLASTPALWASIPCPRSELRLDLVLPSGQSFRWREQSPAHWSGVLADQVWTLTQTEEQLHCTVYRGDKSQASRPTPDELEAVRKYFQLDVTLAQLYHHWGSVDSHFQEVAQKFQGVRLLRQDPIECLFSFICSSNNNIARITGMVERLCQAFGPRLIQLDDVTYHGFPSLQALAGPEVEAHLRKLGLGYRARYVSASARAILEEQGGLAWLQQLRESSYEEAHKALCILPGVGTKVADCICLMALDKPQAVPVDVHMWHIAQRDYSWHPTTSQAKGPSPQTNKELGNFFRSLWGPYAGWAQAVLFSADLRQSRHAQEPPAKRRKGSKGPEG
Description: Inhibition of OGG1 by quantifying inhibition of OGG1-mediated cleavage and dissociation of quenched duplex DNA oligonucleotides, measured as fluorescence at 594 nm. To generate a functional strand incision and increase turn-over this assay is coupled to APE1.
The target in experiment [7] is T3, Single-strand selective monofunctional uracil DNA glycosylase (Homo sapiens) (UniProt Q53HV7).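 Further: enzymatic SMUG1 assay coupled with APE1, reading fluorescence at 594 nm released when a quenched double-stranded DNA oligonucleotide substrate is cleaved and separated.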
T3 sequence (whole entry): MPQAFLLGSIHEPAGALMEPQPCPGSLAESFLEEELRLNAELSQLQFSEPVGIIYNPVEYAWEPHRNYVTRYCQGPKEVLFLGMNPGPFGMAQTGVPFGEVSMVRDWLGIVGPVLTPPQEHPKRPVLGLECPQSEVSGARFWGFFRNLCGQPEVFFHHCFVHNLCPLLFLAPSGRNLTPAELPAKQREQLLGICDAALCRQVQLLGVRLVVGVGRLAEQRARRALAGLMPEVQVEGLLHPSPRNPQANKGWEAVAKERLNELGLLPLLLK
As to conditions: Compound Concentration 10.0 uM, Hit No.
Description: Inhibition of SMUG1 by quantifying inhibition of SMUG1-mediated cleavage and dissociation of quenched duplex DNA oligonucleotides, measured as fluorescence at 594 nm. To generate a functional strand incision and increase turn-over this assay is coupled to APE1.

The target in experiment [8] is G/T mismatch-specific thymine DNA glycosylase (Homo sapiens) (UniProt Q13569). The following applies: Compound Concentration 10.0 uM, Hit No.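 Further: human TDG cleavage of quenched duplex DNA oligonucleotides coupled to APE1, strand release read as fluorescence at 594 nm, inhibition of TDG activity.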
G/T mismatch-specific thymine DNA glycosylase (Homo sapiens), sequence (Q13569 whole entry): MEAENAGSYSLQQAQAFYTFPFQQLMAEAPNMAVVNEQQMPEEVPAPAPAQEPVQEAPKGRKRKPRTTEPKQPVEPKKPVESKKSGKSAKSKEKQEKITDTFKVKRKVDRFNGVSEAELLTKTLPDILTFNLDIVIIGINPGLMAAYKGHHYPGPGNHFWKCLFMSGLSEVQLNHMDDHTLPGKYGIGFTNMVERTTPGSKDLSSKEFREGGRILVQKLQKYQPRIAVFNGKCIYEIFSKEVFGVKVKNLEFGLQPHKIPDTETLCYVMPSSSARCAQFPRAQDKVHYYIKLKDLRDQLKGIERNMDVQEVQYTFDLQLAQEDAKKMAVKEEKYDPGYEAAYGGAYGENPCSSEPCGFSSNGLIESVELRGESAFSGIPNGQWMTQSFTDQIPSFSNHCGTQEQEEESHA
Description: Inhibition of TDG by quantifying inhibition of TDG-mediated cleavage and dissociation of quenched duplex DNA oligonucleotides, measured as fluorescence at 594 nm. To generate a functional strand incision and increase turn-over this assay is coupled to APE1.
Experiment [9] addresses Uracil-DNA glycosylase (Homo sapiens) (UniProt P13051). The following applies: Compound Concentration 10.0 uM, Hit No.
Description: Inhibition of UNG by quantifying inhibition of UNG-mediated cleavage and dissociation of quenched duplex DNA oligonucleotides, measured as fluorescence at 594 nm. To generate a functional strand incision and increase turn-over this assay is coupled to APE1.

Endonuclease 8-like 1 (Homo sapiens), sequence (Q96FI4 whole entry): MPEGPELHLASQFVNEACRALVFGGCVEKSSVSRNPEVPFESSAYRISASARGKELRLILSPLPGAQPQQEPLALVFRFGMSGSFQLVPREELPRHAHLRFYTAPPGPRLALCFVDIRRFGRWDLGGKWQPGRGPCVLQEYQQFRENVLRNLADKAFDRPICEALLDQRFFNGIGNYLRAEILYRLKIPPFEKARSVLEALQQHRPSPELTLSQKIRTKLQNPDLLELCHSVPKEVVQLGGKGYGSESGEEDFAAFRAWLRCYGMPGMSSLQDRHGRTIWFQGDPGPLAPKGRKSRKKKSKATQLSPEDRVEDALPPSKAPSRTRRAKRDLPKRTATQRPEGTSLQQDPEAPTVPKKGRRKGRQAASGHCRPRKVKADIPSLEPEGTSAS
Methyl-CpG-binding domain protein 4 (Homo sapiens), sequence (O95243 whole entry, the tested form may be a part): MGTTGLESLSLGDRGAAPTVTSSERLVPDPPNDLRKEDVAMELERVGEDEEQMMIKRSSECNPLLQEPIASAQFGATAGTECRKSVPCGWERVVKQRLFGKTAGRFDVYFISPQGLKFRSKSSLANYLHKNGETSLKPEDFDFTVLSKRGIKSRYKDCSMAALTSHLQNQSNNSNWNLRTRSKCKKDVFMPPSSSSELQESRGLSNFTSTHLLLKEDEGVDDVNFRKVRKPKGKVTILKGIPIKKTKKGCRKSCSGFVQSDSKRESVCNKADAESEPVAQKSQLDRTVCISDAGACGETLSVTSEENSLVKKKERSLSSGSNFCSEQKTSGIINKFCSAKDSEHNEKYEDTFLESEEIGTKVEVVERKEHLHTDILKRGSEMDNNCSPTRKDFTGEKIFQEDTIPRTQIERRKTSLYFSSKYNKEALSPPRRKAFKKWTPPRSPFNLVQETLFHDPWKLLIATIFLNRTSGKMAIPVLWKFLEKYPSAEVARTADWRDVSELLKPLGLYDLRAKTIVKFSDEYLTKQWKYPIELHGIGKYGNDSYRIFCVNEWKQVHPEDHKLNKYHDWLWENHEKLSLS
Uracil-DNA glycosylase (Homo sapiens), sequence (P13051 whole entry): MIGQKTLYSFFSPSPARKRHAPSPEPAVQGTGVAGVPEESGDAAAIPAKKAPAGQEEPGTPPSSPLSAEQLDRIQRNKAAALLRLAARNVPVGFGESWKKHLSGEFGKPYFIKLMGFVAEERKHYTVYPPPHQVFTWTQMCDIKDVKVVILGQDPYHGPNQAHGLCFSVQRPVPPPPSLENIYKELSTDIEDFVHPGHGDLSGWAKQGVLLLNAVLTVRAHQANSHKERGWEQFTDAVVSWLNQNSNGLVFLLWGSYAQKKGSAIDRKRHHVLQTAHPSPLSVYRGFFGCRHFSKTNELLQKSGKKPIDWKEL

As to `CC(C)NC(=O)c1ccc(C#Cc2ccncc2)cn1`, the inhibition in experiment [1] is -1.07%; in [2] it was -5.61%; in [3], 12.7%; in experiment [4] it was 7.51%; in experiment [5] it was 5.76%; in experiment [6] (Hit No), 2.41%. In addition, the results for the inhibition in experiment [7] and in experiment [8] were 2.68% and 8.93%, respectively.
For `C=CC(=O)Nc1ccc2[nH]c(=O)n(C3CCN(C(=O)c4ccc(-c5nc6cc[nH]c(=O)c6cc5-c5ccccc5)cc4)CC3)c2c1`, the inhibition in experiment [1] was -5.4%; in experiment [2] it was -2.18%; in [3], 1.89%; in [4] it was -0.919%; in experiment [5], 19.4%; in experiment [6] (Hit No), 78.5%. In addition, the inhibition was 58.7% in experiment [8] and -1.3% in experiment [9].
In the case of `CCCCC#Cc1nc(NC)c2ncn([C@@H]3O[C@H](CO)[C@@H](O)[C@H]3O)c2n1`, the inhibition in [1] is 0.324%; in [2] it was -9.85%; in experiment [3], -0.235%; in experiment [4] it was -4.5%; in [5], 5.51%; in experiment [6] (Hit No) it was -7.52%. The inhibition was -0.13% in experiment [7] and -7.72% in [8].
Regarding `O=C(O)COc1cccc(CN(Cc2ccc(-n3cccn3)cc2)S(=O)(=O)c2cccnc2)c1`, the inhibition in experiment [1] is 13.1%; in experiment [2], 2.46%; in [3], 5.01%; in [4] it was 0.389%; in experiment [5] it was -7.47%; in experiment [7], -3.28%. In [8], the inhibition is -2.75%.
In the case of `Cc1ccc(-c2ccc(F)cc2COc2ccc(CCC(=O)O)cc2)cc1`, the inhibition in [1] amounted to 34.9%; in [2], 13.7%; in experiment [3] it was 37.1%; in experiment [4] it was 4.39%; in experiment [5], 4.26%; in experiment [6] (Hit No) it was 31.9%. Further, the inhibition in [8] amounted to 27.6%.
For the compound `CC(C)C[C@H](NC(=O)N1CCCCCC1)C(=O)N[C@H](Cc1cn(C)c2ccccc12)C(=O)N[C@H](Cc1ccccn1)C(=O)O`, the inhibition in experiment [1] is -1.3%; in experiment [2] it was -0.244%; in [3] it was 9.62%; in experiment [4] it was -0.0556%; in experiment [5] it was 6%; in [6] (Hit No) it was -9.37%. The inhibition in experiment [8] was 3.66%; in [9], -6.34%.
`COc1ccc(Br)cc1S(=O)(=O)NC(=O)/C=C/c1ccccc1Cc1ccc2ccccc2c1`: the inhibition was 18% in experiment [1]; -3.79% in experiment [2]; 5.65% in experiment [3]; 0.537% in experiment [4]; 6.5% in experiment [5]; 30.2% in experiment [6] (Hit No). Further, the results for the inhibition in [7] and in experiment [8] were -2.31% and 2.91%, respectively.
`Cc1c(F)cccc1NC(=O)Nc1ccc(Cl)c(S(=O)(=O)[C@H]2CCCNC2)c1O`: the inhibition in [1] is 0.266%; in experiment [2], 11.6%; in [3], -4.97%; in [5] it was -7.22%; in experiment [7] it was -3.57%; in experiment [8], 3.94%. In addition, the inhibition in [9] is -9.51%.
Regarding `COc1cccc(-c2c(C)n(Cc3c(F)cccc3C(F)(F)F)c(=O)n(C[C@H](NCCCC(=O)O)c3ccccc3)c2=O)c1F`, the inhibition in experiment [1] was -5.02%; in experiment [2] it was 1.07%; in experiment [3], 1.3%; in experiment [4], -2.87%; in experiment [5] it was -9.22%; in experiment [6] (Hit No), -3.13%. Besides, the inhibition in experiment [8] was found to be 27.2%.
For the compound `CC(=O)Nc1nc2c(Oc3cc(-c4ccc(C(F)(F)F)cc4)ncn3)cccc2s1`, the inhibition in experiment [1] was 1.85%; in [2] it was 11.2%; in experiment [3], -8.12%; in experiment [4], 4.31%; in [5], -1.88%; in experiment [7], -4.87%. Also, the results for the inhibition in experiment [8] and in experiment [9] were -3.88% and -3.19%, respectively.
As to `CC#C[C@@H](CC(=O)O)c1ccc(OCc2cccc(-c3ccc(C(F)(F)F)cc3)c2)cc1`, the inhibition in experiment [1] was found to be 48.1%; in experiment [2] it was 28.7%; in [3], 47.2%; in experiment [4], 1.13%; in experiment [5], 0.764%; in [6] (Hit Yes), 64.3%. Moreover, the inhibition in [8] was 41.7%; in [9], -4.48%.
As to `CCCc1nc2c(C)cc(-c3nc4ccccc4n3C)cc2n1Cc1ccc(-c2ccccc2C(=O)O)cc1`, the inhibition in [1] is 15.7%; in experiment [2], -0.129%; in experiment [3], 24.6%; in experiment [4], 15.1%; in experiment [5] it was 15.5%; in [7], 3.75%. Further, the inhibition was 18.9% in [8] and -6.03% in [9].
In the case of `Cc1cccc(S(=O)(=O)N(C)[C@H](C)CCN2CCC(C)CC2)c1`, the inhibition in experiment [1] is 3.33%; in [2] it was -2.23%; in experiment [3], 9.55%; in experiment [4] it was 1.79%; in experiment [5], 6.53%; in experiment [7], 1.46%. In addition, the inhibition is 1.58% in experiment [8] and -5.83% in [9].
For the compound `CCC[C@H](Oc1cc(C)c(-n2cc(C(F)(F)F)cn2)c(C)c1)c1ccc(C(=O)NCCC(=O)O)cc1`, the inhibition in experiment [1] was 19.8%; in experiment [2] it was -2.83%; in [3], 39.2%; in experiment [4] it was 4.69%; in [5], 6.5%; in experiment [6] (Hit No), 8.48%. The inhibition in [8] was 24.9%.
As for `Cc1cc([C@@H](C)Nc2cccc(-c3cc(C)c(C(=O)N[C@@H](C)C(=O)O)c(C)c3)c2)ccc1Cl`, the inhibition was 41.7% in [1]; 24.6% in experiment [2]; 43.4% in experiment [3]; -0.204% in experiment [4]; -3.73% in experiment [5]; 24.2% in [6] (Hit No). The values for the inhibition in [8] and in [9] were 36.1% and -6.25%, respectively.
Consider `COc1cc(/C=C/C(=O)NCCn2c(C)cc3ccccc32)cc(OC)c1OC`, for which the inhibition in experiment [1] was 11.5%; in [2], 27.9%; in experiment [3] it was 6.04%; in [4] it was -9.62%; in [5] it was 4.49%; in [7], -8.26%. Moreover, the inhibition was 15.6% in experiment [8] and -0.0662% in [9].
As for `NS(=O)(=O)c1cncc(-c2nc(NCc3ccccn3)c3c(-c4ccccc4)cccc3n2)c1`, the inhibition in experiment [1] is 16%; in [2] it was 0.0701%; in experiment [3], 8.92%; in experiment [4] it was 10.4%; in [5], -1.88%; in experiment [7] it was 7.73%. Also, the values for the inhibition in [8] and in [9] were 14.7% and 0.783%, respectively.
Take `O=C(Cc1ccccc1)Nc1nc2ccc(Cl)cc2c2nc(-c3ccco3)nn12`: the inhibition in [1] is -7.05%; in experiment [2], 6.12%; in experiment [3], 13.8%; in experiment [4] it was -6.88%; in [5], -4.48%; in experiment [6] (Hit No) it was -2.3%. The inhibition in experiment [8] amounted to 4.82%.
With `Cc1ccc(/C(=C\CN2CCCC2)c2ccccn2)cc1`, the inhibition in experiment [1] was -4.67%; in experiment [2] it was -1.09%; in experiment [3] it was 2.96%; in experiment [4], 5.28%; in experiment [5], -2.48%; in [6] (Hit No) it was -5.51%. In addition, the inhibition in experiment [8] amounted to 1.66%.
`CCN(Cc1ccncc1)C(=O)C(CO)c1ccccc1` (configuration not stated): the inhibition in experiment [1] is 1.02%; in experiment [2], 3.77%; in [3], 14%; in experiment [4], -2.58%; in [5], 9.75%; in [6] (Hit No), -6.9%. Besides, the inhibition in [8] was determined as 7.61%.

These data come from ChEMBL document CHEMBL5665443, “Enzyme Inhibitor Single Concentration assay results for EUbOPEN Chemogenomics Library” (2024).
